The term inhibition denotes the drop in the measured response relative to a control, in per cent.

The results in this text go back to PMC9889419 (Pharmacological Reports, 2022).

Test in all cases: Radioligand binding
For one assay, the target named is T1, CXCR2 (IL-8B) (Homo sapiens, UniProt P25025).
T1 construct: purchased Eurofins CEREP
The following applies: 100 μM.

The target in another assay is T2, 5-HT5a (Homo sapiens, UniProt P47898).
T2 construct: purchased Eurofins CEREP
The following applies: 100 μM.

A further assay has as its target T3, GR (Homo sapiens, UniProt P04150).
T3 construct: purchased Eurofins CEREP
The following applies: 100 μM.

A further assay addresses T4, NK2 (Homo sapiens, UniProt P21452).
T4 construct: purchased Eurofins CEREP
The following applies: 100 μM.

In another assay the target is T5, M3 (Homo sapiens, UniProt P20309).
T5 construct: purchased Eurofins CEREP
T5 sequence (P20309 whole entry): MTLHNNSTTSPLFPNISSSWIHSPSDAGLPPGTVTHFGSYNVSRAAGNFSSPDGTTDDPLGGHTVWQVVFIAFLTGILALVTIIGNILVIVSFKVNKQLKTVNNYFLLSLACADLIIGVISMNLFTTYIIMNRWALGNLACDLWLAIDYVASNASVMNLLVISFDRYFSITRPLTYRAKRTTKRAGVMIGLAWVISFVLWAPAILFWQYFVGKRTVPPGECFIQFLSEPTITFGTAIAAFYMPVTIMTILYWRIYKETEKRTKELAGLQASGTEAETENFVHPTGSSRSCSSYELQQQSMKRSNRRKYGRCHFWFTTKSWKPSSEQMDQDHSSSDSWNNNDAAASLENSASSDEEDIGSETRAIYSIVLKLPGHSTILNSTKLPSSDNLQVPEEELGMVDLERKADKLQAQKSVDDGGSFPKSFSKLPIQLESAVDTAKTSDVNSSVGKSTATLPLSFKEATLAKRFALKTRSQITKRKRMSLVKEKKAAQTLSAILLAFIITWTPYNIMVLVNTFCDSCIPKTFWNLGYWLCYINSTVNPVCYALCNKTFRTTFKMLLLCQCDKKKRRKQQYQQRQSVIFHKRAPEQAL
The following applies: 100 μM.

A further assay deals with T6, δ (DOP) (Homo sapiens, UniProt P41143).
T6 construct: purchased Eurofins CEREP
T6 sequence (P41143 whole entry): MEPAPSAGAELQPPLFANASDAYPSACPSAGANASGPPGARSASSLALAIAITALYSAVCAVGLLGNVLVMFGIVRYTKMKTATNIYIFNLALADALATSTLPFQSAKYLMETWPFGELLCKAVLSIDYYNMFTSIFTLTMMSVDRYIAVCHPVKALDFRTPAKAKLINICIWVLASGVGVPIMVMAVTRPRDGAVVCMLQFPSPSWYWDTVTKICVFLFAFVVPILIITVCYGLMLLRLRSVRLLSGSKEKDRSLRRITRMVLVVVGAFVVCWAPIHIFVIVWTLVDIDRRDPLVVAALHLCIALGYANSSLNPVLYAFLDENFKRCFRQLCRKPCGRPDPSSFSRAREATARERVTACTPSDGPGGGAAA
The following applies: 100 μM.

The target of another assay is T7, A1 (Homo sapiens, UniProt P30542).
T7 construct: purchased Eurofins CEREP
T7 sequence (P30542 whole entry): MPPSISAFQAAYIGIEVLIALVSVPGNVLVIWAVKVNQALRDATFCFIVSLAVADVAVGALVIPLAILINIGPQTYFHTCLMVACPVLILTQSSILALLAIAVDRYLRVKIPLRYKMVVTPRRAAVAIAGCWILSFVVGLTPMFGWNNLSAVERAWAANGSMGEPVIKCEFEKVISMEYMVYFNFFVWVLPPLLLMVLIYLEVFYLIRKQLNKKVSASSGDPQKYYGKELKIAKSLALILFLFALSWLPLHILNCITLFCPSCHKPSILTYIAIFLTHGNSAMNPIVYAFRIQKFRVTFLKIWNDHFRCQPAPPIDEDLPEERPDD
The following applies: 100 μM.

In another assay the test system is KV channel. Set-up: species or system rat. The following applies: 100 μM. The protocol: (§1) Radioligand binding. Radioligand binding assays were performed at Eurofins CEREP (France). The results are expressed as a percent of control specific binding (measured specific binding*100/control specific binding) and as a percent inhibition of control specific binding (100-(measured specific binding*100)/control specific binding) obtained in the presence of the test compounds. The IC50 values (concentration causing a half-maximal inhibition of control specific binding) and Hill coefficients (nH) were determined by non-linear regression analysis of the competition curves generated with mean replicate values using Hill equation curve fitting (Y = D + [A-D]/[1 + (C/C50)^nH], where Y = specific binding, A = left asymptote of the curve, D = right asymptote of the curve, C = compound concentration, C50 = IC50, and nH = slope factor). This analysis was performed using software developed at Cerep (Hill software) and validated by comparison with data generated by the commercial software SigmaPlot® 4.0 for Windows® (© 1997 by SPSS Inc.). The inhibition constants (Ki) were calculated using the Cheng Prusoff equation (Ki = IC50/[1 + L/KD], where L = concentration of radioligand in the assay, and KD = affinity of the radioligand for the receptor). A scatchard plot is used to determine the Kd.

In a further assay the test system is P2X. Set-up: species or system rat. The following applies: 100 μM. How it is done:
as §1

The subject of another assay is BB (non-selective). Set-up: species or system rat. The following applies: 100 μM. How it is done: as §1
The next assay has as its system Cl- channel (GABA-gated). Set-up: species or system rat. The following applies: 100 μM. The protocol:
as §1

The subject of another assay is PCP. Set-up: species or system rat. The following applies: 100 μM. How it is done:
as §1

The next assay concerns GABA (non-selective). Set-up: species or system rat. The following applies: 100 μM. The protocol:
as §1

Another assay relates to SKCa channel. Set-up: species or system rat. The following applies: 100 μM. How it is done:
as §1

The subject of the next assay is P2Y. Set-up: species or system rat. The following applies: 100 μM. The protocol:
as §1

The target of another assay is T8, Sigma 2 (Homo sapiens, UniProt Q5BJF2).
T8 construct: purchased Eurofins CEREP
T8 sequence (Q5BJF2 whole entry): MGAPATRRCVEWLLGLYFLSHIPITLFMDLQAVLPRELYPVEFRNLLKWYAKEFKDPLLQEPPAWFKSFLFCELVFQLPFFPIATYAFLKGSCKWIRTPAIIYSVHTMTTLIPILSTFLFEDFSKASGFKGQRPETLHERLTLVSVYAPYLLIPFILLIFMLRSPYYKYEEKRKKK

Counter-ions that a name gives are not always drawn.

T1 sequence (P25025 whole entry): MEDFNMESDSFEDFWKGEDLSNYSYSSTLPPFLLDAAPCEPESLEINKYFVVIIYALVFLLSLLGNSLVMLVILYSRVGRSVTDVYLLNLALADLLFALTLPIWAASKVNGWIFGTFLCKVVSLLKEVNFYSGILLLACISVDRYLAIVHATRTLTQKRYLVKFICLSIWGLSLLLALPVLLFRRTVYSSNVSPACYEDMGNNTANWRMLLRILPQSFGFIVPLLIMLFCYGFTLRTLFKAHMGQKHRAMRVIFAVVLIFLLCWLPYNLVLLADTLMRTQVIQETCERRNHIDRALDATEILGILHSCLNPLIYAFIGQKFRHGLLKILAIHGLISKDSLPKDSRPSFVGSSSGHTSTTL
T3 sequence (P04150 whole entry): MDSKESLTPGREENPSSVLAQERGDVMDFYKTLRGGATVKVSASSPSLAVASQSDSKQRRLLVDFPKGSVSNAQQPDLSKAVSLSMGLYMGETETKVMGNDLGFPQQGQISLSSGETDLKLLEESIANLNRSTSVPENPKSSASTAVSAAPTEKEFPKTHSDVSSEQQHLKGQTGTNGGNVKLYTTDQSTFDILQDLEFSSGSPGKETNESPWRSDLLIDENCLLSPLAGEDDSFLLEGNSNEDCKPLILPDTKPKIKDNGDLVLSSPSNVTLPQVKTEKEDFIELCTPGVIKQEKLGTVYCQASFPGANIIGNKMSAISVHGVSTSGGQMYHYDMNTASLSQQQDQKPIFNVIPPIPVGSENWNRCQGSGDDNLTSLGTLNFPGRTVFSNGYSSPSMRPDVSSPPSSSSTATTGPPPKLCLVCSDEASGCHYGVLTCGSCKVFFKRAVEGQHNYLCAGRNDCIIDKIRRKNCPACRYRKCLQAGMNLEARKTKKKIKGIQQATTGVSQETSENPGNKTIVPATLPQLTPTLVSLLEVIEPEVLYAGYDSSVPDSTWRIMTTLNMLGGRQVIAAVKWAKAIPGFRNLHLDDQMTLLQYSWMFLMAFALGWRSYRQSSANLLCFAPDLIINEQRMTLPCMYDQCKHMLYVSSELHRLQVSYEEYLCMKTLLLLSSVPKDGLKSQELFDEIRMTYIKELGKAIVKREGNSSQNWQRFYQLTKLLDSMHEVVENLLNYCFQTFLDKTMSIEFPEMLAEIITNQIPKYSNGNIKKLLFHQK
T2 sequence (P47898 whole entry): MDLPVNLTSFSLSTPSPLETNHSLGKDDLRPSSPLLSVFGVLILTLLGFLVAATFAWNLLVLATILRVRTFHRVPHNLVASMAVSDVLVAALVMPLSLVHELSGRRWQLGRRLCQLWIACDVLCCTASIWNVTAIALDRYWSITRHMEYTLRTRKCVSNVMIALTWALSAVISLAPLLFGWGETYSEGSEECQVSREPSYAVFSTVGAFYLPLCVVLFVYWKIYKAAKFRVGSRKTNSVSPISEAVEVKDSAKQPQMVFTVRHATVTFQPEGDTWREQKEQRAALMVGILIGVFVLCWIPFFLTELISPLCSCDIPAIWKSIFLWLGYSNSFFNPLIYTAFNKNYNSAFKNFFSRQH
T4 sequence (P21452 whole entry): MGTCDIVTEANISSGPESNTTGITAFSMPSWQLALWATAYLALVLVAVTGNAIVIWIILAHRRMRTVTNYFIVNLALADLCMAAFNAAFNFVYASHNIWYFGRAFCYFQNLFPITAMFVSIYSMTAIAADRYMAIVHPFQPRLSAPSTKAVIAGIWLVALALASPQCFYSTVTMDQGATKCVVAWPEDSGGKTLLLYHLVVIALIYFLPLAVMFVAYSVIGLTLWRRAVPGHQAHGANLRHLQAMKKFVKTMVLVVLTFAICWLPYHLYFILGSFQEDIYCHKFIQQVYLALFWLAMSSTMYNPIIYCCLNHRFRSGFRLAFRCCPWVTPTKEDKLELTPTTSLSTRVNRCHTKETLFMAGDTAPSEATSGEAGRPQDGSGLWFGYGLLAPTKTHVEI

In the case of `CCC(CO)NCCOc1c(C)cccc1Cl` (centres unmarked) [Compound 4, R,S-2-((2-(2-chloro-6-methylphenoxy)ethyl)amino)butan-1-ol], the “% of control specific binding” value on CXCR2 (IL-8B) was determined as 112.2%; on 5-HT5a, 52.8%; on GR, 111.7%; at NK2 it was 88.7%; on M3, 63.5%; at δ (DOP), 97.0%. Besides, the “% of control specific binding” value on A1 is given as 124.5%; with KV channel, 104.2%; with P2X, 100.6%; in the assay with BB (non-selective), 104.6%; in the assay with Cl- channel (GABA-gated), 99.6%; in the assay with PCP it was 72.6%. In addition, the “% of control specific binding” value is given as 109.3% in the assay with GABA (non-selective), 90.5% in the assay on SKCa channel and 102.2% in the assay on P2Y.
Regarding `CCC(CO)NCCOc1c(C)cccc1Cl` (centres unmarked) [KM-408, R,S-2-((2-(2-chloro-6-methylphenoxy)ethyl)amino)butan-1-ol hydrochloride], at Sigma 2 (read-out: % inhibition of specific control binding), the inhibition at 10 µM came to 94.8%. Further, the remaining activity at 10 µM at Sigma 2 (read-out: % of control specific binding) turned out to be 94.8%.
